According to patent US20260374754A1, “N-((ISOQUINOLIN-6-YL)METHYL)-1H-PYRAZOLE-4-CARBOXAMIDE DERIVATIVES AS PLASMA KALLIKREIN INHIBITORS FOR THE TREATMENT OF HEREDITARY ANGIODEMA” (Takeda Pharmaceutical Company Limited, priority 2022, published 2026):

Biological target: human activated kallikrein enzyme (Homo sapiens, UniProt P03952)
Test: Inhibition of human activated plasma kallikrein, fluorogenic PFR-AMC substrate, 500 pM enzyme format
Type: biochemical
Conditions: 500 pM activated kallikrein; 300 μM PFR-AMC; 30 min preincubation; 10 min room temperature; pH 7.5; read-out: Primary Dose Response Assay: Average EC50
Method: Compounds were evaluated for inhibition of the human activated kallikrein enzyme in two formats of an assay employing a fluorogenic peptide substrate. In one assay format, the concentrations of reagents were as follows: 20 mM Tris pH 7.5, 1 mM EDTA, 150 mM sodium chloride, 0.1% PEG-400, 0.1% Triton X-100, 500 pM activated kallikrein enzyme, 300 μM Pro-Phe-Arg-7-amido-4-methylcoumarin (PFR-AMC) substrate. Prior to reaction initiation with substrate, enzyme and inhibitors were preincubated for 30 min at room temperature. After initiation with substrate, reactions were incubated for 10 min at room temperature and fluorescence emission at 460 nm from 380 nm excitation measured with a microplate reader. In another assay format, the concentrations of reagents were as follows: 20 mM Tris pH 7.5, 1 mM EDTA, 150 mM sodium chloride, 0.1% PEG-400, 0.1% Triton X-100, 5 pM activated kallikrein enzyme, 300 uM PFR-AMC substrate. Prior to reaction initiation with substrate, enzyme and inhibitors were preincubated for 30 min at room temperature. After initiation with substrate, reactions were incubated for 18 hr at room temperature and fluorescence emission at 460 nm from 380 nm excitation measured with a microplate reader.
Table 35 provides the results of the assay in the format with 500 pM activated kallikrein assay.

Chain of human activated kallikrein enzyme (P03952 391-638 limits assumed): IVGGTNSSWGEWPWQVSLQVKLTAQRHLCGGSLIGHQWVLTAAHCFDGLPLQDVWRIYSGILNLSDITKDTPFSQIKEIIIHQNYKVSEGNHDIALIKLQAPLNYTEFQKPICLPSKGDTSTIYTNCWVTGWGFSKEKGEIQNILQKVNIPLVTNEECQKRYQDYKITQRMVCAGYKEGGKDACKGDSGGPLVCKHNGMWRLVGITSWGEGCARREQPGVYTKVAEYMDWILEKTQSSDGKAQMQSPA
Chain of human activated kallikrein enzyme (P03952 20-390 partner limits assumed): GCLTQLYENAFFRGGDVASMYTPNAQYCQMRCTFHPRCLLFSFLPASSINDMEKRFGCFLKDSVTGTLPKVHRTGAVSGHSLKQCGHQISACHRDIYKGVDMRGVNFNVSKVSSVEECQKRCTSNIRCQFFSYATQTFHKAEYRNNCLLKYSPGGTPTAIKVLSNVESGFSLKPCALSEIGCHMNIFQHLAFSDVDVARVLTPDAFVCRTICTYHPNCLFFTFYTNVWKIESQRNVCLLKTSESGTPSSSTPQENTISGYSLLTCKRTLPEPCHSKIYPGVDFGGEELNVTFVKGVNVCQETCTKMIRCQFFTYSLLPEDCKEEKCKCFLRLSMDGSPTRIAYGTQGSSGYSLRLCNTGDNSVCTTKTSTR

| Structure (SMILES) | EC50 |
| --- | --- |
| Cc1ccc2nc(C(C)n3cc(C(=O)NCc4c(C)cc5c(N)nccc5c4C)cn3)cn2c1 (single isomer, unassigned) [Example 12, (S*)-N-((1-amino-5,7-dimethylisoquinolin-6-yl)methyl)-1-(1-(6-methylimidazo[1,2-a]pyridin-2-yl)ethyl)-1H-pyrazole-4-carboxamide] | < 0.001 µM |
| Cc1cc2c(N)nccc2c(C)c1CNc1cc(OC(C)c2ccc(Cn3cccn3)cc2)cnn1 (single isomer, unassigned) [Example 277, (S*)-6-(((5-(1-(4-((1H-pyrazol-1-yl)methyl)phenyl)ethoxy)pyridazin-3-yl)amino)methyl)-5,7-dimethylisoquinolin-1-amine] | 0.01 to 0.1 µM |
| Cc1cc2c(N)nccc2c(C)c1CNC(=O)c1cnn(CC(=O)N(C)c2ccccc2)c1 [Compound 155] | > 1 µM |
| Cc1cc(CNc2cc(NCc3c(C)cc4c(N)nccc4c3C)ncn2)cc(C)c1CC(=O)N(C)C [Compound 360] | < 0.001 µM |
| Cc1ccc2cnc(Cn3cc(C(=O)NCc4c(C)cc5c(N)nccc5c4C)cn3)cc2c1 [Example 1, N-((1-amino-5,7-dimethylisoquinolin-6-yl)methyl)-1-((6-methylisoquinolin-3-yl)methyl)-1H-pyrazole-4-carboxamide] | < 0.001 µM |
| Cc1ccc2nc(Cn3cc(C(=O)NCc4c(C)cc5c(N(C(=O)OC(C)C)C(=O)OC(C)C)nccc5c4C)cn3)cn2c1 [Example 3, diisopropyl (5,7-dimethyl-6-((1-((6-methylimidazo[1,2-a]pyridin-2-yl)methyl)-1H-pyrazole-4-carboxamido)methyl)isoquinolin-1-yl)iminodicarbonate] | 0.1 to 1 µM |
| Cc1ccc2nc(Cn3cc(C(=O)NCc4c(C)cc5c(N(C(=O)OCc6ccccc6)C(=O)OCc6ccccc6)nccc5c4C)cn3)cn2c1 [Example 4, benzyl ((benzyloxy)carbonyl)(5,7-dimethyl-6-((1-((6-methylimidazo[1,2-a]pyridin-2-yl)methyl)-1H-pyrazole-4-carboxamido)methyl)isoquinolin-1-yl)carbamate] | > 1 µM |
| Cc1ccc2nc(Cn3cc(C(=O)NCc4c(C)cc5c(NC(=O)OCC(C)C)nccc5c4C)cn3)cn2c1 [Example 5, isobutyl (5,7-dimethyl-6-((1-((6-methylimidazo[1,2-a]pyridin-2-yl)methyl)-1H-pyrazole-4-carboxamido)methyl)isoquinolin-1-yl)carbamate] | 0.01 to 0.1 µM |
| Cc1ccc2nc(Cn3cc(C(=O)NCc4c(C)cc5c(NC(=O)OC(C)C)nccc5c4C)cn3)cn2c1 [Example 6, isopropyl (5,7-dimethyl-6-((1-((6-methylimidazo[1,2-a]pyridin-2-yl)methyl)-1H-pyrazole-4-carboxamido)methyl)isoquinolin-1-yl)carbamate] | 0.01 to 0.1 µM |
| CC(=O)Nc1nccc2c(C)c(CNC(=O)c3cnn(Cc4cn5cc(C)ccc5n4)c3)c(C)cc12 [Example 8, N-((1-acetamido-5,7-dimethylisoquinolin-6-yl)methyl)-1-((6-methylimidazo[1,2-a]pyridin-2-yl)methyl)-1H-pyrazole-4-carboxamide] | 0.01 to 0.1 µM |
| Cc1ccc2nc(Cn3cc(C(=O)NCc4c(C)cc5c(N)nccc5c4C)cn3)cn2c1 [Example 10, N-((1-amino-5,7-dimethylisoquinolin-6-yl)methyl)-1-((6-methylimidazo[1,2-a]pyridin-2-yl)methyl)-1H-pyrazole-4-carboxamide] | < 0.001 µM |
| COC(=O)C(c1cn2cc(C)ccc2n1)n1cc(C(=O)NCc2c(C)cc3c(N)nccc3c2C)cn1 (centres unmarked) [Example 14, methyl 2-(4-(((1-amino-5,7-dimethylisoquinolin-6-yl)methyl)carbamoyl)-1H-pyrazol-1-yl)-2-(6-methylimidazo[1,2-a]pyridin-2-yl)acetate] | 0.1 to 1 µM |
| Cc1ccc2nc(Cn3cc(C(=O)NCc4c(C)cc5c(N)nccc5c4C)cn3)nn2c1 [Example 15, N-((1-amino-5,7-dimethylisoquinolin-6-yl)methyl)-1-((6-methyl-[1,2,4]triazolo[1,5-a]pyridin-2-yl)methyl)-1H-pyrazole-4-carboxamide] | < 0.001 µM |
| Cc1cc2c(N)nccc2c(C)c1CNC(=O)c1cnn(Cc2ccc(Oc3cccn(C)c3=O)cc2)c1 [Example 18, N-((1-amino-5,7-dimethylisoquinolin-6-yl)methyl)-1-(4-((1-methyl-2-oxo-1,2-dihydropyridin-3-yl)oxy)benzyl)-1H-pyrazole-4-carboxamide] | < 0.001 µM |
| Cc1cc(Cn2cc(C(=O)NCc3c(C)cc4c(N)nccc4c3C)cn2)cc(C)c1CC(=O)N(C)C [Example 20, N-((1-amino-5,7-dimethylisoquinolin-6-yl)methyl)-1-(4-(2-(dimethylamino)-2-oxoethyl)-3,5-dimethylbenzyl)-1H-pyrazole-4-carboxamide] | < 0.001 µM |
| Cc1cc2c(N)nccc2c(C)c1CNC(=O)c1cnn(Cc2ccc(N(C)C(=O)N3CCCC3)cc2)c1 [Example 21, N-((1-amino-5,7-dimethylisoquinolin-6-yl)methyl)-1-(4-(N-methylpyrrolidine-1-carboxamido)benzyl)-1H-pyrazole-4-carboxamide] | 0.001 to 0.01 µM |
| Cc1cnc2ccc(Cn3cc(C(=O)NCc4c(C)cc5c(N)nccc5c4C)cn3)cc2n1 [Example 24, N-((1-amino-5,7-dimethylisoquinolin-6-yl)methyl)-1-((3-methylquinoxalin-6-yl)methyl)-1H-pyrazole-4-carboxamide] | < 0.001 µM |
| Cc1cc(Cn2cc(C(=O)NCc3c(C)cc4c(N)nccc4c3C)cn2)ccc1CC(=O)N(C)C [Example 26, N-((1-amino-5,7-dimethylisoquinolin-6-yl)methyl)-1-(4-(2-(dimethylamino)-2-oxoethyl)-3-methylbenzyl)-1H-pyrazole-4-carboxamide] | < 0.001 µM |

More lines, now with the values ahead:

| EC50 | Structure (SMILES) |
| --- | --- |
| < 0.001 µM | Cc1ccc2nc(C(C)n3cc(C(=O)NCc4c(C)cc5c(N)nccc5c4C)cn3)cn2c1 (single isomer, unassigned) [Example 11, (R*)-N-((1-amino-5,7-dimethylisoquinolin-6-yl)methyl)-1-(1-(6-methylimidazo[1,2-a]pyridin-2-yl)ethyl)-1H-pyrazole-4-carboxamide] |
| 0.001 to 0.01 µM | Cc1cc(Cn2cc(C(=O)NCc3c(C)cc4c(N)nccc4c3C)cn2)ccc1C1CC1 [Example 2, N-((1-amino-5,7-dimethylisoquinolin-6-yl)methyl)-1-(4-cyclopropyl-3-methylbenzyl)-1H-pyrazole-4-carboxamide] |
| 0.01 to 0.1 µM | Cc1ccc2nc(Cn3cc(C(=O)NCc4c(C)cc5c(NC(=O)OCc6ccccc6)nccc5c4C)cn3)cn2c1 [Example 7, benzyl (5,7-dimethyl-6-((1-((6-methylimidazo[1,2-a]pyridin-2-yl)methyl)-1H-pyrazole-4-carboxamido)methyl)isoquinolin-1-yl)carbamate] |
| 0.001 to 0.01 µM | CCOC(=O)Nc1nccc2c(C)c(CNC(=O)c3cnn(Cc4cn5cc(C)ccc5n4)c3)c(C)cc12 [Example 9, ethyl (5,7-dimethyl-6-((1-((6-methylimidazo[1,2-a]pyridin-2-yl)methyl)-1H-pyrazole-4-carboxamido)methyl)isoquinolin-1-yl)carbamate] |
| < 0.001 µM | Cc1ccc2nc(C(C)n3cc(C(=O)NCc4c(C)cc5c(N)nccc5c4C)cn3)cn2c1 (centres unmarked) [Example 13, N-((1-amino-5,7-dimethylisoquinolin-6-yl)methyl)-1-(1-(6-methylimidazo[1,2-a]pyridin-2-yl)ethyl)-1H-pyrazole-4-carboxamide] |
| 0.001 to 0.01 µM | Cc1ncc2ccc(Cn3cc(C(=O)NCc4c(C)cc5c(N)nccc5c4C)cn3)cc2n1 [Example 16, N-((1-amino-5,7-dimethylisoquinolin-6-yl)methyl)-1-((2-methylquinazolin-7-yl)methyl)-1H-pyrazole-4-carboxamide] |
| < 0.001 µM | Cc1cc2c(N)nccc2c(C)c1CNC(=O)c1cnn(Cc2ccc(Oc3cc(Cl)cn(C)c3=O)cc2)c1 [Example 17, N-((1-amino-5,7-dimethylisoquinolin-6-yl)methyl)-1-(4-((5-chloro-1-methyl-2-oxo-1,2-dihydropyridin-3-yl)oxy)benzyl)-1H-pyrazole-4-carboxamide] |
| < 0.001 µM | CC(=O)NC1(c2ccc(Cn3cc(C(=O)NCc4c(C)cc5c(N)nccc5c4C)cn3)cc2)CC1 [Example 19, 1-(4-(1-acetamidocyclopropyl)benzyl)-N-((1-amino-5,7-dimethylisoquinolin-6-yl)methyl)-1H-pyrazole-4-carboxamide] |
| 0.001 to 0.01 µM | Cc1cc2c(N)nccc2c(C)c1CNC(=O)c1cnn(Cc2ccc(N(C)C(=O)N(C)C)cc2)c1 [Example 22, N-((1-amino-5,7-dimethylisoquinolin-6-yl)methyl)-1-(4-(1,3,3-trimethylureido)benzyl)-1H-pyrazole-4-carboxamide] |
| 0.01 to 0.1 µM | Cc1cc2c(N)nccc2c(C)c1CNC(=O)c1cnn(Cc2ccc(C(F)(F)C(=O)N(C)C)cc2)c1 [Example 23, N-((1-amino-5,7-dimethylisoquinolin-6-yl)methyl)-1-(4-(2-(dimethylamino)-1,1-difluoro-2-oxoethyl)benzyl)-1H-pyrazole-4-carboxamide] |
| 0.001 to 0.01 µM | CCOC(=O)N(C)c1ccc(Cn2cc(C(=O)NCc3c(C)cc4c(N)nccc4c3C)cn2)cc1 [Example 25, ethyl (4-((4-(((1-amino-5,7-dimethylisoquinolin-6-yl)methyl)carbamoyl)-1H-pyrazol-1-yl)methyl)phenyl)(methyl)carbamate] |
